US9522890B2, “Compounds acting at multiple prostaglandin receptors giving a general anti-inflammatory response” (Allergan, Inc., priority 2011, dated 2016)

Experiments:
Format in all cases: cell-based
[1] = target: T1, human recombinant prostanoid FP receptor (Homo sapiens, UniProt P43088); assay: FLIPR Ca2+ signaling PG antagonist assay, FP receptor stable cell line; details: HEK-293 EBNA cells, standard agonist 17-phenyl-PGF2α
T1 construct: expressed in transfected cells
Description: (§1) The above compounds were tested for PG antagonist activity as follows using human recombinant prostanoid receptor (DP1, EP1-4, FP, IP and TP) stable cell lines:
(§2) In order to measure the response of Gs and Gi coupled prostanoid receptors as a Ca^2+ signal, chimeric G protein cDNAs were used. Stable cell lines over-expressing human prostanoid DP1, EP1-4, FP, IP, and TP receptors were established as follows:
(§3) Briefly, human prostanoid DP1, EP2, and EP4 receptor cDNAs were co-transfected with chimeric Gqs cDNA containing a haemagglutanin (HA) epitope; human prostanoid EP3 receptors were co-transfected with chimeric Gqi-HA; human EP1, FP, IP, and TP receptor cDNAs were expressed with no exogenous G-proteins. Gqs and Gqi chimeric cDNAs (Molecular Devices, Sunnyvale, Calif., U.S.A.), as well as cDNAs of prostanoid receptors, were cloned into a pCEP4 vector with a hygromycin B selection marker. Transfection into HEK-293 EBNA (Epstein-Barr virus nuclear antigen) cells was achieved by the FuGENE 6 transfection Reagent (Roche Applied Science, Indianapolis, Ind., USA). Stable transfectants were selected according to hygromycin resistance. Because Gqs and Gqi contained an HA epitope, G-protein expression was detected by Western blotting analysis using anti-mouse HA monoclonal antibody and horseradish peroxidase (HRP)-conjugated secondary antibody, while functional expression of prostanoid receptors was detected by FLIPR screening (Matias et al., 2004). These stable cell lines were validated using previously published antagonists at 10 μM against serial dilutions of standard agonists by FLIPR functional assays for Ca^2+ Signaling (as described below).
(§4) Ca^2+ signaling studies were performed using a FLIPR TETRA system (Molecular Devices, Sunnyvale, Calif., USA) in the 384-format. This is a high-throughput instrument for cell-based assays to monitor Ca^2+ signaling associated with GPCRs and ion channels. Cells were seeded at a density of 5×10^4 cells/well in BioCoat poly-D-lysine coated, black wall, clear bottom 384-well plates (BD Biosciences, Franklin lakes, NJ, USA) and allowed to attach overnight in an incubator at 37° C. The cells were then washed twice with HBSS-HEPES buffer (Hanks' balanced salt solution without bicarbonate and phenol red, 20 mM HEPES, pH 7.4) using an ELx405 Select CW Microplate Washer (BioTek, Winooski, Vt., USA). After 60 min of dye-loading in the dark using the Ca^2+-sensitive dye Fluo-4AM (Invitrogen, Carlsbad, Calif., USA), at a final concentration of 2×10^−6M, the plates were washed 4 times with HBSS-HEPES buffer to remove excess dye and leaving 50 μl of buffer in each well. The plates were then placed in the FLIPR TETRA instrument and allowed to equilibrate at 37° C. Compounds were added in a 25 μl volume to each well to give final concentrations of 0.1 μM, 0.3 μM, 1 μM, 3 μM, 10 μM, and 30 μM; or 0.067 μM, 0.1 μM, 0.2 μM, 0.3 μM, 0.67 μM, and 1 μM for cells over-expressing TP receptors. After 4.5 minutes, a 7-point serial dilution of the standard agonist for the corresponding receptor, in a 25 μl volume was injected at the final concentrations from 10^−11M to 10^−5M in 10-fold serial dilution increments for cells expressing human recombinant DP1, EP1, EP2, EP3, EP4, FP, and IP receptors. The dose range for the standard agonist for human recombinant TP receptors was from 10^−12M to 10^−6M. HBSS-HEPES buffer was used as the negative control for the standard agonists. Cells were excited with LED (light emitting diode) excitation at 470-495 nm and emission was measured through an emission filter at 515-575 nm. Assay plates were read for 3.5 minutes using the FLIPR^TETRA. The peak increase in fluorescence intensity was recorded for each well. On each plate, negative controls, dose response of positive controls, and co-treatments of antagonist-agonist for each dose were in triplicates. Standard agonists were as follows: DP=BW 245C, EP1-EP4=PGE2, FP=17-phenyl-PGF2α, IP=Cicaprost, and TP=U-46619. […]

[2] = target: T2, human recombinant prostanoid DP1 receptor (Homo sapiens, UniProt Q13258); assay: FLIPR Ca2+ signaling PG antagonist assay, DP1 receptor stable cell line; details: HEK-293 EBNA cells with chimeric Gqs, standard agonist BW 245C; read-out: DP (antagonist Kb)
T2 construct: expressed in transfected cells; co-transfected with chimeric Gqs-HA
T2 sequence (Q13258 1-359): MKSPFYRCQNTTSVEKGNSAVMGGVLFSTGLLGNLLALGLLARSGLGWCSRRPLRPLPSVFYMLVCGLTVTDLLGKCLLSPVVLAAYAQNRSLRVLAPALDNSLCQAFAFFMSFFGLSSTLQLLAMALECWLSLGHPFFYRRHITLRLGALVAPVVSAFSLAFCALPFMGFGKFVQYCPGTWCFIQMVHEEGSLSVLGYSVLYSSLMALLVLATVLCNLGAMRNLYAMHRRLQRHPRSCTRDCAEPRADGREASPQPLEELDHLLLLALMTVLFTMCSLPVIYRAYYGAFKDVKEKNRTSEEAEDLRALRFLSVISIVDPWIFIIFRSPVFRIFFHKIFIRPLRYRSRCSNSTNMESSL
Description: as §1, §2, §3, §4

[3] = target: T3, human recombinant prostanoid EP1 receptor (Homo sapiens, UniProt P34995); assay: FLIPR Ca2+ signaling PG antagonist assay, EP1 receptor stable cell line; details: HEK-293 EBNA cells, standard agonist PGE2
T3 construct: expressed in transfected cells
T3 sequence (P34995 1-402): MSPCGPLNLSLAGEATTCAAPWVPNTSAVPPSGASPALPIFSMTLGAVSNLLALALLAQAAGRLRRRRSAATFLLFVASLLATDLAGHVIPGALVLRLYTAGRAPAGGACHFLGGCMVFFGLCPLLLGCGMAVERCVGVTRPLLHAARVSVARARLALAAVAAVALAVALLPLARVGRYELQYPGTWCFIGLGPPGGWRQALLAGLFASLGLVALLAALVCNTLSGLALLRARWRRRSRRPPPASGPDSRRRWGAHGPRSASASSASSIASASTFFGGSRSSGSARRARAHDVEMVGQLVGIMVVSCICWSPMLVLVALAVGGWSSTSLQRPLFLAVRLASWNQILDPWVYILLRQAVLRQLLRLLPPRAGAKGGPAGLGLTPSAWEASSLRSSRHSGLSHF
Description: as §1, §2, §3, §4

[4] = target: T4, human recombinant prostanoid EP2 receptor (Homo sapiens, UniProt P43116); assay: FLIPR Ca2+ signaling PG antagonist assay, EP2 receptor stable cell line; details: HEK-293 EBNA cells with chimeric Gqs, standard agonist PGE2
T4 construct: expressed in transfected cells; co-transfected with chimeric Gqs-HA
T4 sequence (P43116 whole entry): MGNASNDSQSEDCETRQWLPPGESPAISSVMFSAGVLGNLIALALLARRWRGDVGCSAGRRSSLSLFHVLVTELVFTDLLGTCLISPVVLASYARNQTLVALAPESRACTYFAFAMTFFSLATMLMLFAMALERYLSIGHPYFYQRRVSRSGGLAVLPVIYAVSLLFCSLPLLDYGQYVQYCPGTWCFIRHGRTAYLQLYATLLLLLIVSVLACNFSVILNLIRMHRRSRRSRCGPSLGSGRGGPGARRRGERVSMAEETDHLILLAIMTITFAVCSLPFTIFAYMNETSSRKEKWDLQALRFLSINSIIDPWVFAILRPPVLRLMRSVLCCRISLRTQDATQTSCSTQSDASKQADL
Description: as §1, §2, §3, §4

[5] = target: T5, human recombinant prostanoid EP3 receptor (Homo sapiens, UniProt P43115); assay: FLIPR Ca2+ signaling PG antagonist assay, EP3 receptor stable cell line; details: HEK-293 EBNA cells with chimeric Gqi, standard agonist PGE2
T5 construct: expressed in transfected cells; co-transfected with chimeric Gqi-HA
T5 sequence (P43115 1-390): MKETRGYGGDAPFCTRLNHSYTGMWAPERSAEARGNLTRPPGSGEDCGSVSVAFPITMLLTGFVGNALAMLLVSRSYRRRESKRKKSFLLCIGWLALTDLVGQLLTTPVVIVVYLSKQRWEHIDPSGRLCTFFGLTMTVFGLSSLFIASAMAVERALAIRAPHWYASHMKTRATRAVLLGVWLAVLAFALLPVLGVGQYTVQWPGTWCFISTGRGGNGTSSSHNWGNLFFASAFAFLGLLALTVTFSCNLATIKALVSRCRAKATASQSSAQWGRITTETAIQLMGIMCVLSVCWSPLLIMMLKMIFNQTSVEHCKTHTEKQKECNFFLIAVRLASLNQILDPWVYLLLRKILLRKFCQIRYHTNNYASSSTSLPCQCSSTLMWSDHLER
Description: as §1, §2, §3, §4

[6] = target: T6, human recombinant prostanoid EP4 receptor (Homo sapiens, UniProt P35408); assay: FLIPR Ca2+ signaling PG antagonist assay, EP4 receptor stable cell line; details: HEK-293 EBNA cells with chimeric Gqs, standard agonist PGE2
T6 construct: expressed in transfected cells; co-transfected with chimeric Gqs-HA
T6 sequence (P35408 whole entry): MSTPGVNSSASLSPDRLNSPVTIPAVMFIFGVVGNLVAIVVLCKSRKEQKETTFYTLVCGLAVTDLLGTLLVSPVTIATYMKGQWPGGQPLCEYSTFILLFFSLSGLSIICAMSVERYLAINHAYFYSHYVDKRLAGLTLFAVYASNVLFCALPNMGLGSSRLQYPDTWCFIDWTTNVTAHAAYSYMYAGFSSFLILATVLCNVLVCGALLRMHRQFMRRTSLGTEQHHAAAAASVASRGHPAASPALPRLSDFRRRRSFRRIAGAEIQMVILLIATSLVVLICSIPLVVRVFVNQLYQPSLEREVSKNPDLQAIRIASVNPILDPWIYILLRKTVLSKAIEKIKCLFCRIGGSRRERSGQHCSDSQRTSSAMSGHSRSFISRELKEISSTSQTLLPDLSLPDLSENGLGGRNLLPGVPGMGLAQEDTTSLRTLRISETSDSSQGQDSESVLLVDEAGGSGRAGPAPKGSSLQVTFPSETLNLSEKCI
Description: as §1, §2, §3, §4

[7] = target: T7, human recombinant prostanoid IP receptor (Homo sapiens, UniProt P43119); assay: FLIPR Ca2+ signaling PG antagonist assay, IP receptor stable cell line; details: HEK-293 EBNA cells, standard agonist Cicaprost
T7 construct: expressed in transfected cells
T7 sequence (P43119 whole entry): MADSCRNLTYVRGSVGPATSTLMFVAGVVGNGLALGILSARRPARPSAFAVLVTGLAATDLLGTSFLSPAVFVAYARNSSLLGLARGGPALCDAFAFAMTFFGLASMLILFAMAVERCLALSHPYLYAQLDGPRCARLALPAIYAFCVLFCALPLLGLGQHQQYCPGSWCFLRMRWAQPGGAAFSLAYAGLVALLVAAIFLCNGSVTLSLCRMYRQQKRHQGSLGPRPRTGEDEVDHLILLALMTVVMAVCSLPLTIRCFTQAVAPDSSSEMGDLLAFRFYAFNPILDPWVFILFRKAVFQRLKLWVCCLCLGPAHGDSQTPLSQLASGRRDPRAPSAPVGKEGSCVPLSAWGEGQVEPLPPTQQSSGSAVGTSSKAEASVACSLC
Description: as §1, §2, §3, §4

[8] = target: T8, human recombinant prostanoid TP receptor (Homo sapiens, UniProt P21731); assay: FLIPR Ca2+ signaling PG antagonist assay, TP receptor stable cell line; details: HEK-293 EBNA cells, standard agonist U-46619
T8 construct: expressed in transfected cells
T8 sequence (P21731 1-343): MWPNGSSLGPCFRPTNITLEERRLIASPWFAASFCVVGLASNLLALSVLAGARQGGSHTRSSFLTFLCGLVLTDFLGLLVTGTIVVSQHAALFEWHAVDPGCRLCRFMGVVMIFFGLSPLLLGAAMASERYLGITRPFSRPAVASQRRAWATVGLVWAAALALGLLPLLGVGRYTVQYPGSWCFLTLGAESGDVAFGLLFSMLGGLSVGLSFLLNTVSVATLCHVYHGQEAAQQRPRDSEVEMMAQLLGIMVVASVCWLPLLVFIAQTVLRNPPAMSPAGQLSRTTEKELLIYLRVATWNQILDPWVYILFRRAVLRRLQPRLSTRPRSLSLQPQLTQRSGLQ
Description: as §1, §2, §3, §4

T1 sequence (P43088 whole entry): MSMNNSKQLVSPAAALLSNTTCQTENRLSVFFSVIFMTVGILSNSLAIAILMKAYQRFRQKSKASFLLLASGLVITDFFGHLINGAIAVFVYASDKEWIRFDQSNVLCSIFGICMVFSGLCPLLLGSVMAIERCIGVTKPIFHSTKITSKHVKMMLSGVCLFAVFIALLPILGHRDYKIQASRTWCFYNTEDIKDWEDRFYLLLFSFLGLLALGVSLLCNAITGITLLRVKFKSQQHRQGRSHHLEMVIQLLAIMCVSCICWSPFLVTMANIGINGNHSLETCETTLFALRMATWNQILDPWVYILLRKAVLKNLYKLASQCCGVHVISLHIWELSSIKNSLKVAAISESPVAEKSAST

Row | Structure (SMILES) | Kb [1] [nM] | Kb [2] [nM] | Kb [3] [nM] | Kb [4] [nM] | Kb [5] [nM] | Kb [6] [nM] | Kb [7] [nM] | Kb [8] [nM]
1 | CCC(CC)COc1ccc(Br)cc1Cn1nc(C(=O)O)cc1C [Example 6, 1-[5-BROMO-2-(2-ETHYL-BUTOXY)-BENZYL]-5-METHYL-1H-PYRAZOLE-3-CARBOXYLIC ACID] | 35 | 150 | 10 | 6200 | ≥ 10000 | 800 | 500 | < 1
2 | Cc1cc(C(=O)NS(=O)(=O)c2ccccc2)nn1Cc1cc(Cl)ccc1OCc1ccc(Cl)cc1 [Example 5, N-{1-[5-CHLORO-2-(4-CHLORO-BENZYLOXY)-BENZYL]-5-METHYL-1H-PYRAZOLE-3-CARBONYL}-BENZENESULFONAMIDE] | 1700 | 2600 | 10 | ≥ 10000 | 1500 | 75 | 2000 | 10
3 | CCC(C)(CC)COc1ccc(Br)cc1Cn1nc(C(=O)O)cc1C [Example 7, 1-[5-BROMO-2-(2-ETHYL-2-METHYL-BUTOXY)-BENZYL]-5-METHYL-1H-PYRAZOLE-3-CARBOXYLIC ACID] | 80 | 150 | 19 | 3600 | ≥ 10000 | 2070 | 1700 | 11
4 | Cc1cc(C(=O)O)nn1Cc1cc(Cl)ccc1OCC1CCCC1 [Example 1, 1-(5-CHLORO-2-CYCLOPENTYLMETHOXY-BENZYL)-5-METHYL-1H-PYRAZOLE-3-CARBOXYLIC ACID] | 150 | 800 | 30 | ≥ 10000 | ≥ 10000 | 800 | ≥ 10000 | < 1
5 | Cc1cc(C(=O)O)nn1Cc1cc(Br)ccc1OCC1CCCC1 [Example 2, 1-(5-BROMO-2-CYCLOPENTYLMETHOXY-BENZYL)-5-METHYL-1H-PYRAZOLE-3-CARBOXYLIC ACID] | 20 | 400 | 10 | ≥ 10000 | ≥ 10000 | 400 | 1300 | < 1
6 | COc1ccc(COc2ccc(Cl)cc2Cn2nc(C(=O)NS(=O)(=O)c3ccccc3)cc2C)cc1 [Example 4, N-{1-[5-CHLORO-2-(4-METHOXY-BENZYLOXY)-BENZYL]-5-METHYL-1H-PYRAZOLE-3-CARBONYL}-BENZENESULFONAMIDE] | 400 | 800 | 10 | 4900 | 2500 | 140 | 900 | 2
7 | Cc1cc(C(=O)O)nn1Cc1cc(Br)ccc1OCC1CCC1 [Example 8, 1-(5-BROMO-2-CYCLOBUTYLMETHOXY-BENZYL)-5-METHYL-1H-PYRAZOLE-3-CARBOXYLIC ACID] | 8 | 130 | 10 | ≥ 10000 | 4100 | 700 | 5600 | 8
8 | Cc1cc(C(=O)O)nn1Cc1cc(C(F)(F)F)ccc1OCC1CCCC1 [Example 3, 1-(2-CYCLOPENTYLMETHOXY-5-TRIFLUOROMETHYL-BENZYL)-5-METHYL-1H-PYRAZOLE-3-CARBOXYLIC ACID] | 80 | 700 | 5 | 8900 | ≥ 10000 | 700 | 4000 | 1
9 | Cc1cc(C(=O)O)nn1Cc1cc(Br)ccc1OCC1(C(F)(F)F)CCC1 [Example 9, 1-[5-BROMO-2-(1-TRIFLUOROMETHYL-CYCLOBUTYLMETHOXY)-BENZYL]-5-METHYL-1H-PYRAZOLE-3-CARBOXYLIC ACID] | 30 | 190 | 16 | 3300 | 2600 | 600 | ≥ 10000 | 10
